Assay results from paper PMC9516332 (Frontiers in Oncology, 2022).
Like-named read-outs stand apart in the source and are kept apart here.

Experiments:
134 cancer cell lines [1] = assay: Cell viability assay (ATPlite, 72 hours), IC50 on cancer cell line panel
AP-1060 (ETV6-NTRK3) = assay: Cell viability assay
134 cancer cell lines [2] = tested on: 134 cancer cell lines

- IC50 (134 cancer cell lines [1]; Homo sapiens, MOLT-4, read-out: IC50 in cell proliferation assay, MOLT-4 cell line): 9.35 µM
- IC50 (134 cancer cell lines [1]; Homo sapiens, MV4-11, read-out: IC50 in cell proliferation assay, MV4-11 cell line (FLT3 ITD)): 0.087 µM
- IC50 (134 cancer cell lines [1]; Homo sapiens, MeWo, read-out: IC50 in cell proliferation assay, MeWo cell line): 6.97 µM
- IC50 (134 cancer cell lines [1]; Homo sapiens, NCCIT, read-out: IC50 in cell proliferation assay, NCC-IT cell line): 1.66 µM
- IC50 (134 cancer cell lines [1]; Homo sapiens, NCI-H82, read-out: IC50 in cell proliferation assay, cell line NCI-H82): 10.9 µM
- IC50 (134 cancer cell lines [1]; Homo sapiens, NCI-H460, read-out: IC50 in cell proliferation assay, NCI-H460 cell line): 9.4 µM
- IC50 (134 cancer cell lines [1]; Homo sapiens, NCI-H661, read-out: IC50 in cell proliferation assay, NCI-H661 cell line): 2.1 µM
- IC50 (134 cancer cell lines [1]; Homo sapiens, NCI-H716, read-out: IC50 in cell proliferation assay, cell line NCI-H716 (FGFR2-COL14A1)): 0.244 µM
- IC50 (134 cancer cell lines [1]; Homo sapiens, NCI-H1650, read-out: IC50 in cell proliferation assay, NCI-H1650 cell line (EGFR exon19del)): 2.56 µM
- IC50 (134 cancer cell lines [1]; Homo sapiens, NCI-H1975, read-out: IC50 in cell proliferation assay, NCI-H1975 cell line (EGFR p.L858R + p.T790M)): 6.51 µM
- IC50 (134 cancer cell lines [1]; Homo sapiens, NCI-H2228, read-out: IC50 in cell proliferation assay, NCI-H2228 cell line (EML4-ALK)): 7.94 µM
- IC50 (134 cancer cell lines [1]; Homo sapiens, OVCAR-3, read-out: IC50 in cell proliferation assay, cell line OVCAR-3): 4.11 µM
- IC50 (134 cancer cell lines [1]; Homo sapiens, PFSK-1, read-out: IC50 in cell proliferation assay, cell line PFSK-1): 16.7 µM
- IC50 (134 cancer cell lines [1]; Homo sapiens, RL95-2, read-out: IC50 in cell proliferation assay, cell line RL95-2 (EGFR p.A289V)): 1.39 µM
- IC50 (134 cancer cell lines [1]; Homo sapiens, RPMI-7951, read-out: IC50 in cell proliferation assay, cell line RPMI-7951 (BRAF p.V600E)): 2.79 µM
- IC50 (134 cancer cell lines [1]; Homo sapiens, RS4-11, read-out: IC50 in cell proliferation assay, cell line RS4;11): 14.7 µM
- IC50 (134 cancer cell lines [1]; Homo sapiens, Rec1, read-out: IC50 in cell proliferation assay, cell line REC-1): 6.58 µM
- IC50 (134 cancer cell lines [1]; Homo sapiens, SHP77, read-out: IC50 in cell proliferation assay, cell line SHP-77): > 31.6 µM
- IC50 (134 cancer cell lines [1]; Homo sapiens, SK-BR-3, read-out: IC50 in cell proliferation assay, cell line SK-BR-3 (ERBB2 amplification)): 3.88 µM
- IC50 (134 cancer cell lines [1]; Homo sapiens, SK-N-AS, read-out: IC50 in cell proliferation assay, cell line SK-N-AS): 4.65 µM
- IC50 (134 cancer cell lines [1]; Homo sapiens, SK-N-FI, read-out: IC50 in cell proliferation assay, cell line SK-N-FI): 4.14 µM
- IC50 (134 cancer cell lines [1]; Homo sapiens, SK-N-MC, read-out: IC50 in cell proliferation assay, cell line SK-N-MC): 10.4 µM
- IC50 (134 cancer cell lines [1]; Homo sapiens, SK-N-SH, read-out: IC50 in cell proliferation assay, cell line SK-N-SH (ALK p.F1174L)): 1.65 µM
- IC50 (134 cancer cell lines [1]; Homo sapiens, SNU-5, read-out: IC50 in cell proliferation assay, cell line SNU-5 (MET amplification)): > 31.6 µM
- IC50 (134 cancer cell lines [1]; Homo sapiens, SNU-16, read-out: IC50 in cell proliferation assay, cell line SNU-16 (FGFR2 amplification)): 0.135 µM
- IC50 (134 cancer cell lines [1]; Homo sapiens, SNU-C2B, read-out: IC50 in cell proliferation assay, cell line SNU-C2B (EGFR p.R165Q)): 19.6 µM
- IC50 (134 cancer cell lines [1]; Homo sapiens, SU-DHL-1, read-out: IC50 in cell proliferation assay, cell line SU-DHL-1 (NPM1-ALK)): 11.4 µM
- IC50 (134 cancer cell lines [1]; Homo sapiens, SU-DHL-6, read-out: IC50 in cell proliferation assay, cell line SU-DHL-6): 1.93 µM
- IC50 (134 cancer cell lines [1]; Homo sapiens, SUP-T1, read-out: IC50 in cell proliferation assay, cell line SUP-T1): 30.7 µM
- IC50 (134 cancer cell lines [1]; Homo sapiens, SW48, read-out: IC50 in cell proliferation assay, cell line SW48 (EGFR p.G719S)): 4.57 µM
- IC50 (134 cancer cell lines [1]; Homo sapiens, SW480, read-out: IC50 in cell proliferation assay, cell line SW480): 15.4 µM
- IC50 (134 cancer cell lines [1]; Homo sapiens, SW626, read-out: IC50 in cell proliferation assay, cell line SW626): 9.63 µM
- IC50 (134 cancer cell lines [1]; Homo sapiens, SW780, read-out: IC50 in cell proliferation assay, cell line SW780 (FGFR3-BAIAP2L1)): 1.41 µM
- IC50 (134 cancer cell lines [1]; Homo sapiens, SW837, read-out: IC50 in cell proliferation assay, cell line SW837): 12.9 µM
- IC50 (134 cancer cell lines [1]; Homo sapiens, SW872, read-out: IC50 in cell proliferation assay, cell line SW872 (BRAF p.V600E)): 5.58 µM
- IC50 (134 cancer cell lines [1]; Homo sapiens, SW900, read-out: IC50 in cell proliferation assay, cell line SW900): 5.11 µM
- IC50 (134 cancer cell lines [1]; Homo sapiens, SW948, read-out: IC50 in cell proliferation assay, cell line SW948): 15.1 µM
- IC50 (134 cancer cell lines [1]; Homo sapiens, SW982, read-out: IC50 in cell proliferation assay, cell line SW982 (BRAF p.V600E)): 1.61 µM
- IC50 (134 cancer cell lines [1]; Homo sapiens, SW-620, read-out: IC50 in cell proliferation assay, cell line SW620): 2.46 µM
- IC50 (134 cancer cell lines [1]; Homo sapiens, T98G, read-out: IC50 in cell proliferation assay, cell line T98G): 0.785 µM
- IC50 (134 cancer cell lines [1]; Homo sapiens, TCC-SUP, read-out: IC50 in cell proliferation assay, cell line TCCSUP): 5.55 µM
- IC50 (134 cancer cell lines [1]; Homo sapiens, THP-1, read-out: IC50 in cell proliferation assay, cell line THP-1): > 31.6 µM
- IC50 (134 cancer cell lines [1]; Homo sapiens, U2OS, read-out: IC50 in cell proliferation assay, cell line U2OS): 2.67 µM
- IC50 (134 cancer cell lines [1]; Homo sapiens, U-87 MG, read-out: IC50 in cell proliferation assay, cell line U-87MG ATCC): 20.8 µM
- IC50 (134 cancer cell lines [1]; Homo sapiens, U-118-MG, read-out: IC50 in cell proliferation assay, cell line U-118MG): 2.78 µM
- IC50 (134 cancer cell lines [1]; Homo sapiens, UMUC3, read-out: IC50 in cell proliferation assay, cell line UM-UC-3): 2.83 µM
- IC50 (134 cancer cell lines [1]; Hs766T, read-out: IC50 in cell proliferation assay, Hs 766T cell line): 3.3 µM
- IC50 (134 cancer cell lines [1]; L-82, read-out: IC50 in cell proliferation assay, L-82 cell line (NPM1-ALK)): 11.1 µM
- IC50 (134 cancer cell lines [1]; Rh30, read-out: IC50 in cell proliferation assay, cell line Rh30): 6.62 µM
- IC50 (134 cancer cell lines [1]; read-out: IC50 in cell proliferation assay, 11-18 cell line (EGFR p.L858R)): 2.07 µM
- IC50 (134 cancer cell lines [1]; read-out: IC50 in cell proliferation assay, Hs 852.T cell line): 10.8 µM
- IC50 (134 cancer cell lines [1]; read-out: IC50 in cell proliferation assay, JAR cell line): 5.16 µM
- IC50 (134 cancer cell lines [1]; read-out: IC50 in cell proliferation assay, cell line 5637): 4.55 µM
- IC50 (134 cancer cell lines [1]; read-out: IC50 in cell proliferation assay, cell line A-388): 2.11 µM
- IC50 (134 cancer cell lines [1]; read-out: IC50 in cell proliferation assay, cell line DB): 13.3 µM
- IC50 (134 cancer cell lines [1]; read-out: IC50 in cell proliferation assay, cell line DEL (NPM1-ALK)): 16.1 µM
- IC50 (134 cancer cell lines [1]; read-out: IC50 in cell proliferation assay, cell line ES-2 (BRAF p.V600E)): 7.67 µM
- IC50 (134 cancer cell lines [1]; read-out: IC50 in cell proliferation assay, cell line PA-1): 4.5 µM
- IC50 (134 cancer cell lines [1]; read-out: IC50 in cell proliferation assay, cell line PC-3): 6.08 µM
- IC50 (134 cancer cell lines [1]; read-out: IC50 in cell proliferation assay, cell line RD): 14.6 µM
- IC50 (134 cancer cell lines [1]; read-out: IC50 in cell proliferation assay, cell line RKO (BRAF p.V600E)): 11.3 µM
- IC50 (134 cancer cell lines [1]; read-out: IC50 in cell proliferation assay, cell line RL): 5.67 µM
- IC50 (134 cancer cell lines [1]; read-out: IC50 in cell proliferation assay, cell line RT-4 (FGFR3-TACC3)): 0.453 µM
- IC50 (134 cancer cell lines [1]; read-out: IC50 in cell proliferation assay, cell line SR (NPM1-ALK)): 8.14 µM
- IC50 (134 cancer cell lines [1]; read-out: IC50 in cell proliferation assay, cell line T24): 6.55 µM
- IC50 (134 cancer cell lines [1]; read-out: IC50 in cell proliferation assay, cell line TT (RET p.C634W)): 0.055 µM
- IC50 (134 cancer cell lines [1]; read-out: IC50 in cell proliferation assay, cell line VA-ES-BJ): 7.77 µM
- IC50 (134 cancer cell lines [2]): 2.64 µM
SMILES: CO[C@]1(C(=O)N[C@@H](C)c2ccc(-n3cc(F)cn3)nc2)CC[C@H](c2nc(C)cc(Nc3cc(C)[nH]n3)n2)CC1 [pralsetinib]
- higher sensitivity of AP-1060 to pralsetinib compared to selpercatinib (AP-1060 (ETV6-NTRK3); cell viability): ~20 fold
- IC50 (AP-1060 (ETV6-NTRK3); read-out: IC50 in cell proliferation assay): 0.206 µM
